± gives the expanded uncertainty stated by the source.
Conditions: Liquid, Closed cell (Static) method

SMILES	vapor or sublimation pressure (283.15 K)	vapor or sublimation pressure (293.15 K)	vapor or sublimation pressure (303.15 K)	vapor or sublimation pressure (313.15 K)	vapor or sublimation pressure (323.15 K)
C=C(F)C(F)(F)F [2,3,3,3-tetrafluoro-1-propene]	436.5 ± 7.1 kPa	591 ± 7.2 kPa	780.5 ± 7.4 kPa	1015.6 ± 7.6 kPa	1300.7 ± 7.9 kPa
CC(F)F [1,1-difluoroethane]	374.8 ± 7 kPa	515.2 ± 7 kPa	692 ± 7.1 kPa	911.1 ± 7.1 kPa	1179.4 ± 7.2 kPa

— the NIST ThermoML archive (doi:10.1016/j.fluid.2014.04.015)
